# According to patent publication US20090124652A1, “Polymorphs of 1-(2-Methylpropyl)-1H-Imidazo[4,5-C][1,5]Naphthyridin-4-Amine Ethane-Sulfonate” (Takeda Pharmaceutical Company Limited, priority 2004, published 2009):
# “And” between values parts separate entries of the source, which are not always exact repeats. Equal values may be shown once. “Also recorded” adds a separate entry of the source.
# What was measured:
# [1] = tested on: cytokine biosynthesis; conditions: U.S. Pat. No. 6,194,425; cited from earlier work
# [2] = tested on: Peripheral blood mononuclear cells (PBMC); assay: Cytokine induction in human cells (in vitro human blood cell system); type: cell-based; conditions: generally tested at 30-0.014 μM, incubated 18 to 24 hours, ELISA
# Excerpt: An in vitro human blood cell system is used to assess cytokine induction. Activity is based on the measurement of interferon (α) and tumor necrosis factor (α) (IFN and TNF, respectively) secreted into culture media as described by Testerman et al. in “Cytokine Induction by the Immunomodulators Imiquimod and S-27609,” Journal of Leukocyte Biology, 58, 365-372 (September, 1995).
# Whole blood from healthy human donors is collected by venipuncture into EDTA vacutainer tubes. Peripheral blood mononuclear cells (PBMC) are separated from whole blood by density gradient centrifugation using HISTOPAQUE-1077. Blood is diluted 1:1 with Dulbecco's Phosphate Buffered Saline (DPBS) or Hank's Balanced Salts Solution (HBSS). […]
# Following incubation the plates are centrifuged for 10 minutes at 1000 rpm (approximately 200×g) at 4° C. […] The samples are analyzed for interferon (α) by ELISA and for tumor necrosis factor (α) by ELISA or IGEN Assay.
# Interferon (α) concentration is determined by ELISA using a Human Multi-Species kit from PBL Biomedical Laboratories, New Brunswick, N.J. Results are expressed in pg/mL.
# Tumor necrosis factor (α) (TNF) concentration is determined using ELISA kits available from Biosource International, Camarillo, Calif. Alternately, the TNF concentration can be determined by ORIGEN M-Series Immunoassay and read on an IGEN M-8 analyzer from IGEN International, Gaithersburg, Md. […]
# [3] = Hygroscopicity / water sorption of the crystalline form; type: physicochemical; conditions: experimentally determined
# Protocol: The automated analysis of water sorption was performed using a VTI Symmetrical Gravimetric Analyzer Model 100 (SGA-100) operated in Step-Isotherm mode. The sample was exposed to a cycle of relative humidity (RH) conditions at 25° C. The relative humidity was cycled from 5% to 95% and back to 5% in increments of 5%, and the weight of the sample at each stage was recorded after equilibration (less than 0.01% weight change within 5 minutes). The percent weight change of the sample as a function of the relative humidity was plotted to yield the adsorption/desorption isotherm.
# [4] = Relative stability of the crystalline form; type: physicochemical
compound,measurement,setting,value
"CC(C)Cn1cnc2c(N)nc3cccnc3c21 [1-(2-methylpropyl)-1H-imidazo[4,5-c][1,5]naphthyridin-4-amine]",ability to induce cytokine biosynthesis,[1],induce cytokine biosynthesis
"CC(C)Cn1cnc2c(N)nc3cccnc3c21.CCS(=O)(=O)O [1-(2-methylpropyl)-1H-imidazo[4,5-c][1,5]naphthyridin-4-amine ethanesulfonate]",induction of production of interferon α and/or tumor necrosis factor α,[2],induce the production of certain cytokines; also recorded: inducing the production of interferon α and/or tumor necrosis factor α
CC(C)Cn1cnc2c(N)nc3cccnc3c21.CCS(=O)(=O)O.O (hydrate or solvate),melting point,,220 to 221 °C and 221.5 to 223.4 °C
"CC(C)Cn1cnc2c(N)nc3cccnc3c21.CCS(=O)(=O)O [Form B, 1-(2-methylpropyl)-1H-imidazo[4,5-c][1,5]naphthyridin-4-amine ethanesulfonate]",hygroscopicity,[3],hygroscopic
"CC(C)Cn1cnc2c(N)nc3cccnc3c21.CCS(=O)(=O)O.O [Form C, 1-(2-methylpropyl)-1H-imidazo[4,5-c][1,5]naphthyridin-4-amine ethanesulfonate monohydrate]",stability of crystalline form,[4],relatively stable
